Read-outs that look alike come from different tables or passages of the source.
What was measured:
[1] = Stability of ceftriaxone in spiked human plasma under different storage conditions (LC-MS/MS); assay type: physicochemical; conditions: for Stability, Precipitated 4hrs in RT: protein precipitated; for Stability in plasma, F/T cycle 5 / Stability in plasma, F/T cycle 3: freeze -80°C/thaw RT; for Stability in plasma, RT 24 hrs / Stability in plasma, RT 48 hrs: RT about 23°C
Method: (§1) Stock solution 10 mg/ml was evaluated at -80°C and at +4°C for 5 days, and in room temperature (+24°C) for 8 hrs. The lowest concentration of working solution 50 µg/ml was also evaluated at -80°C for 5 days and at room temperature (24°C) for 5 hrs. Spiked plasma stored at ambient temperature and at 4°C for 48 h was used to evaluate short-term stability. Long-term stability of spiked samples at -80°C was evaluated after 7 months. Freeze-thaw stability was evaluated for plasma samples and haemolysed plasma samples for five cycles. The samples were stored at -80°C for 24 h followed by unassisted thawing at room temperature for 2–3 h and subsequent re-freezing at -80°C. The stability of precipitated samples stored at ambient temperature (about 23°C) for 4 h was also evaluated. The stability of extracted samples in the LC autosampler kept at 10°C was evaluated by re-injecting the calibrators and QC samples 65 h after initial injection. The acceptance criteria for stability was achieved when the RSD of stability samples was below ±15%, and the accuracy of mean concentrations was within ±15% of nominal concentration.
(§2) The stability samples were quantified using a calibration curve in CPD plasma. Stability samples in CPD plasma were compared to the average measured concentration of CPD QC samples added in the same run. The CPD calibration curve was also used to quantify heparin and EDTA stability samples due to limited supply of volunteer donor blood. However, since EDTA and heparin have different recovery from plasma compared to CPD, a direct comparison would be biased. Thus, stability samples were instead compared with the average measured concentration of the precision and accuracy of each anticoagulant.

[2] = cited from earlier work
[3] = Stability of ceftriaxone stock and working solutions; conditions: for Stock solution stability: stock solution 10 mg/ml in water; for Working solution stability: weakest working solution 50 µg/ml
Method: as §1, §2

[4] = Stability of extracted samples in the LC autosampler at 10°C; assay type: physicochemical, human
[5] = Stability of ceftriaxone in acidic (pH about 2) and neutral pH dilutions; conditions: +4°C
[6] = cited from earlier work; remark: listed apart in the source
[7] = QC1, 2.97 µg/ml, CPD haemolysis plasma
[8] = QC1, 2.97 µg/ml, CPD plasma, vs average measured CPD QC concentration in same run
[9] = QC1, 2.97 µg/ml, EDTA plasma, vs average of four precision and accuracy batches
[10] = QC1, 2.97 µg/ml, EDTA plasma, vs average of four precision and accuracy batches for this anticoagulant
[11] = QC1, 2.97 µg/ml, Li-heparin plasma, vs average of four precision and accuracy batches
[12] = QC1, 2.97 µg/ml, Na-heparin haemolysis plasma
[13] = QC1, 2.97 µg/ml, Na-heparin plasma, vs average of four precision and accuracy batches
[14] = QC3, 155 µg/ml, CPD haemolysis plasma
[15] = QC3, 155 µg/ml, CPD plasma, vs average measured CPD QC concentration in same run
[16] = QC3, 155 µg/ml, EDTA plasma, vs average of four precision and accuracy batches
[17] = QC3, 155 µg/ml, Li-heparin plasma, vs average of four precision and accuracy batches
[18] = QC3, 155 µg/ml, Na-heparin haemolysis plasma
[19] = QC3, 155 µg/ml, Na-heparin plasma, vs average of four precision and accuracy batches

## CO/N=C(\C(=O)N[C@@H]1C(=O)N2C(C(=O)O)=C(CSc3nc(=O)c(=O)[nH]n3C)CS[C@H]12)c1csc(N)n1 [ceftriaxone]
[1]; [7]
  Stability, Precipitated 4hrs in RT: 99.3%
  Stability in plasma, F/T cycle 5: 88.4%
[1]; [8]
  Stability, Precipitated 4hrs in RT: 94.2%
  Stability in plasma, RT 24 hrs: 106%
  Stability in plasma, RT 48 hrs: 100%
  Stability in plasma, F/T cycle 3: 97.7%
  Stability in plasma, F/T cycle 5: 94.0%
  Stability in plasma, 4°C 24 hrs: 102%
  Stability in plasma, 4°C 48 hrs: 103%
  Stability in plasma, -80°C 224 days: 103%
[1]; [9]
  Stability, Precipitated 4hrs in RT: 98.0%
  Stability in plasma, F/T cycle 3: 103%
  Stability in plasma, F/T cycle 5: 103%
  Stability in plasma, -80°C 224 days: 95.5%
[1]; [10]
  Stability in plasma, RT 24 hrs: 105%
  Stability in plasma, 4°C 24 hrs: 113%
[1]; [11]
  Stability, Precipitated 4hrs in RT: 103%
  Stability in plasma, F/T cycle 3: 95.7%
  Stability in plasma, F/T cycle 5: 99.5%
  Stability in plasma, 4°C 24 hrs: 98.3%
  Stability in plasma, -80°C 224 days: 96.0%
[1]; QC1, 2.97 µg/ml, Li-heparin plasma, vs average of four precision and accuracy batches for this anticoagulant
  Stability in plasma, RT 24 hrs: 105%
[1]; [12]
  Stability, Precipitated 4hrs in RT: 91.9%
  Stability in plasma, F/T cycle 3: 91.3%
  Stability in plasma, F/T cycle 5: 97.6%
[1]; [13]
  Stability, Precipitated 4hrs in RT: 96.8%
  Stability in plasma, F/T cycle 3: 100%
  Stability in plasma, F/T cycle 5: 98.7%
  Stability in plasma, 4°C 24 hrs: 109%
  Stability in plasma, -80°C 224 days: 93.7%
[1]; QC1, 2.97 µg/ml, Na-heparin plasma, vs average of four precision and accuracy batches for this anticoagulant
  Stability in plasma, RT 24 hrs: 103%
[1]; [14]
  Stability, Precipitated 4hrs in RT: 94.3%
  Stability in plasma, F/T cycle 5: 98.6%
[1]; [15]
  Stability, Precipitated 4hrs in RT: 101%
  Stability in plasma, RT 24 hrs: 99.8%
  Stability in plasma, RT 48 hrs: 99.6%
  Stability in plasma, F/T cycle 3: 99.1%
  Stability in plasma, F/T cycle 5: 95.0%
  Stability in plasma, 4°C 24 hrs: 101%
  Stability in plasma, -80°C 224 days: 109%
[1]; [16]
  Stability, Precipitated 4hrs in RT: 90.9%
  Stability in plasma, F/T cycle 3: 97.9%
  Stability in plasma, F/T cycle 5: 95.5%
  Stability in plasma, 4°C 24 hrs: 104%
  Stability in plasma, -80°C 224 days: 92.8%
[1]; [17]
  Stability, Precipitated 4hrs in RT: 91.4%
  Stability in plasma, F/T cycle 3: 96.1%
  Stability in plasma, F/T cycle 5: 94.2%
  Stability in plasma, 4°C 24 hrs: 108%
  Stability in plasma, -80°C 224 days: 98.8%
[1]; QC3, 155 µg/ml, Li-heparin plasma, vs average of four precision and accuracy batches for this anticoagulant
  Stability in plasma, RT 24 hrs: 101%
[1]; [18]
  Stability, Precipitated 4hrs in RT: 88.8%
  Stability in plasma, F/T cycle 3: 90.4%
  Stability in plasma, F/T cycle 5: 88.5%
[1]; [19]
  Stability, Precipitated 4hrs in RT: 88.2%
  Stability in plasma, F/T cycle 3: 97.5%
  Stability in plasma, F/T cycle 5: 93.7%
  Stability in plasma, 4°C 24 hrs: 106%
  Stability in plasma, -80°C 224 days: 94.5%
[1]; ambient temperature (about 23°C) for 4 h prior to transfer to Phree plate
  Stability of protein precipitated samples: good stability
[1]; five cycles, QC samples in all anticoagulants, including plasma with moderate haemolysis
  Freeze-thaw stability in plasma: good stability
[1]; up to 24 h at ambient temperature (about 23°C) and 4°C in all anticoagulants, CPD plasma up to 48 h
  Short-term stability in plasma: confirmed
[2]; acid hydrolysis with 0.1 M hydrochloric acid, 30 minutes, ref Shrestha et al. 24
  Degradation: 19.6%
[2]; post-extraction dilution of samples using 0.5% formic acid in water, ref Herrera-Hidalgo et al. 31
  LC-stability: 4 h
[3]; +4°C for 5 days
  Stock solution stability: above 98%
[3]; -80°C for 5 days
  Stock solution stability: above 98%
  Working solution stability: about 98%
[3]; workbench +24°C for 8 hrs
  Stock solution stability: above 98%
[3]; workbench +24°C for 5 hrs
  Working solution stability: about 98%
[4]; extracted samples in LC autosampler 10°C up to 65 h, full set of calibrators and QC re-injected
  Variation in QC concentrations: less than 10%
[4]; extracted samples in LC autosampler 10°C, 65 h
  Loss, original injection vs 65-h injection: about 20%
[5]; 10 mM ammonium formate containing 2% formic acid (pH about 2), dark, 48 hrs
  Degradation: 95%
[5]; ammonium formate 10 mM with 2% formic acid (pH about 2), 2 days (48 hrs)
  Remaining of initial concentration: 5%
[5]; ammonium formate 10 mM with 2% formic acid (pH about 2), 3 days
  Remaining of initial concentration: less than 1%
[5]; dilutions in solutions with neutral pH, 2 and 3 days
  Remaining of initial concentration: 95–100%
[6]; 0.5-g intravenous dose
  Mean plasma concentration 24 h after administration: 5300 ng/mL
[6]; 1-g intravenous dose
  Mean plasma concentration 24 h after administration: 9300 ng/mL
[6]; 2-g intravenous dose
  Mean plasma concentration 24 h after administration: 15100 ng/mL
[6]; standard 2-g daily dose, critically ill patients with sepsis
  Population mean peak levels: below 200 μg/ml
